# How the values were obtained:
# Assay type in all cases: cell-based
# [1] = target: T1, hVR1 (Homo sapiens, UniProt Q8NER1); assay: cell-based; settings: for activity at VR1: result in words
# T1 construct: expressed in transfected cells; host or cells: HEK293 (transient)
# [2] = target: T2, hVR4 (Homo sapiens, UniProt Q9HBA0); assay: FLIPR intracellular calcium assay (Fluo-3) in HEK293 cells transiently expressing hVR4; settings: for effect on intracellular calcium: HEK293-hVR4 cells, result in words
# T2 construct: expressed in transfected cells; host or cells: HEK293 (transient)
# T2 sequence (Q9HBA0 whole entry): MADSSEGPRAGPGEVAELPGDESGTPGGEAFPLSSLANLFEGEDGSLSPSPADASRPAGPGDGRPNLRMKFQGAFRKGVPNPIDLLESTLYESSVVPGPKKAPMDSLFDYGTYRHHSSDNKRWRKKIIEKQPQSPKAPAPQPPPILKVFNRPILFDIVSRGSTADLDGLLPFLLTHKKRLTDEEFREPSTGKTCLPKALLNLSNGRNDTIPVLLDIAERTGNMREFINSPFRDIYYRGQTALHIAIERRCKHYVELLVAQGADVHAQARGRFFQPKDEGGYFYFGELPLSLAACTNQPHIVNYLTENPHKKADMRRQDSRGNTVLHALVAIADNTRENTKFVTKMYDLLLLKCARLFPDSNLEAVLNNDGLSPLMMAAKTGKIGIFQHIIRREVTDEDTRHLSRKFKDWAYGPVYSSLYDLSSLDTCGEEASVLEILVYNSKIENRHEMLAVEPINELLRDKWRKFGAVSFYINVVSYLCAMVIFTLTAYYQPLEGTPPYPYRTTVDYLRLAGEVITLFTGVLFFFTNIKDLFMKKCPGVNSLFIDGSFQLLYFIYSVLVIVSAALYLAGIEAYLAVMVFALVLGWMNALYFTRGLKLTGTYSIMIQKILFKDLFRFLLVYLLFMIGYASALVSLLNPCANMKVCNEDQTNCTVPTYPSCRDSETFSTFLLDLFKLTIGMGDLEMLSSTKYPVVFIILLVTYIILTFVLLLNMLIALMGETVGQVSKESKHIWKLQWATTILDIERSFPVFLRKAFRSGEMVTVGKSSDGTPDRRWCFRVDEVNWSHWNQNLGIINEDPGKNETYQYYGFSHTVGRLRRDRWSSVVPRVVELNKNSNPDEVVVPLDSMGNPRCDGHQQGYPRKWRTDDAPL
# Procedure: HEK293 cells transiently expressing hVR1 or hVR4 were seeded into FLIPR96 plates at 25,000cells/well and cultured overnight. The cells were then loaded in medium containing 4microM Fluo-3 for 2hrs, at room temperature, in the dark. The cell plates were then washed 4x with Tyrode containing 1.5mM calcium and 0.2% BSA. Agonist and antagonist plates were prepared in the same buffer. Cells were preincubated with either antagonist or buffer at room temperature for 30 mins. Agonists additions and calcium measurements were made in the FLIPR (Smart et al., (2000) Br J. Pharmacol. 129, 227-230).
# [3] = test system: wild type HEK293 cells; assay: FLIPR intracellular calcium assay (Fluo-3) in wild type HEK293 cells; settings: result in words
# [4] = test system: cells transfected with empty vector; assay: FLIPR intracellular calcium assay (Fluo-3) in HEK293 cells transfected with empty vector; settings: result in words
# T1 sequence (Q8NER1 whole entry): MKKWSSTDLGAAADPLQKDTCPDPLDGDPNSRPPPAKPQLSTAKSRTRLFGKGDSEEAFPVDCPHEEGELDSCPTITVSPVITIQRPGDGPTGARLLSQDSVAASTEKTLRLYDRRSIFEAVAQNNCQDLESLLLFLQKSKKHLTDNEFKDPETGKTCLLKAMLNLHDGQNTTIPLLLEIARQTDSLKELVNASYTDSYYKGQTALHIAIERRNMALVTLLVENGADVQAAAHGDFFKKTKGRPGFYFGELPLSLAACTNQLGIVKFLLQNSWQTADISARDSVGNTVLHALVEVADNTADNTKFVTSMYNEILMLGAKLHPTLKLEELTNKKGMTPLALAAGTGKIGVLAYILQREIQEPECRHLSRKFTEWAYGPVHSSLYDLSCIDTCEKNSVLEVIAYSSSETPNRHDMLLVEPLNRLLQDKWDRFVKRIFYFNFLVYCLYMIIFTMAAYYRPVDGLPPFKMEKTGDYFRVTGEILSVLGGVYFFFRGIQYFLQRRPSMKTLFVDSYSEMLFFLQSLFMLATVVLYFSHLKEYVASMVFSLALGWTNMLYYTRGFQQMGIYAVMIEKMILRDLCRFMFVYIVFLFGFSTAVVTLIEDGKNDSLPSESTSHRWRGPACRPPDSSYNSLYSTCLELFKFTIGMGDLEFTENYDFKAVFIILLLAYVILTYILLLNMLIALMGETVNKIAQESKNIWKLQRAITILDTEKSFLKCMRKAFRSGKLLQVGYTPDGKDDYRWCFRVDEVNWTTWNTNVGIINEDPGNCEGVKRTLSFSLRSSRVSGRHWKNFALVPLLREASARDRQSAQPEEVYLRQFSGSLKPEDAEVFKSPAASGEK
SMILES,EC50 [1],"Emax ([1]; VR1, compared to capsaicin and RTX)",activity at VR1 ([1]; VR1),EC50 [2],effect on intracellular calcium [2],effect on intracellular calcium [3],effect on intracellular calcium [4],"pEC50 ([2]; HEK293 cells expressing hVR4, mean±s.e.mean, n=3-5, IA= inactive)","selectivity ([2]; VR4 versus VR1, conclusion in words)"
C=C(C)C12CC(C)C34OC(Cc5ccccc5)(OC1C3C=C(COC(=O)Cc1ccc(O)c(OC)c1)CC1(O)C(=O)C(C)=CC14)O2 (centres unmarked) [RTX],1.17 nM,,,,,,,,
"CCCCCCCCCCCCCC(=O)O[C@@H]1[C@@H](C)[C@@]2(O)[C@@H](C=C(CO)C[C@]3(O)C(=O)C(C)=C[C@@H]23)[C@@H]2C(C)(C)[C@]12OC(C)=O [PMA, phorbol 12-myristate 13-acetate]",13.8 nM,0.46,partial agonist,229 nM,increased intracellular calcium,without effect,without effect,,
"CCCCCCCCCC(=O)O[C@@H]1[C@@H](C)[C@@]2(O)[C@@H](C=C(CO)C[C@@]3(O)C(=O)C(C)=C[C@@H]23)[C@@H]2C(C)(C)[C@]12OC(=O)CCCCCCCCC [4αPDD, 4α-phorbol-12,13-didecanoate]",,,inactive,,increased intracellular calcium,without effect,without effect,5.73±0.06,VR4 selective agonist

# From EP1170365A1, “Member of the ion channel family of polypeptides; vanilrep4” (SMITHKLINE BEECHAM PLC, priority 2000, dated 2002)
